We go through 16 compounds from patent US20160251341A1, “SUBSTITUTED TRIAZOLE COMPOUNDS AS SERINE PROTEASE INHIBITORS” (Verseon Corporation, priority 2015, published 2016).

Counter-ions that a name gives are not always drawn.

This test deals with T1, Human thrombin (Homo sapiens, UniProt P00734).
T1 construct: purchased Haematologic Technologies Inc
Kind of test: Thrombin protease inhibition assay (chromogenic substrate S-2238). It counts as biochemical. Particulars: 3 nM human thrombin, 125 μM S-2238, 10 min pre-incubation, RT. The procedure: The thrombin activity reported herein (e.g., Table A) was obtained as follows. Human thrombin was obtained from Haematologic Technologies Inc. The chromogenic substrate S-2238 was obtained from DiaPharma. Thrombin was assayed in buffer containing 0.05 M Tris (pH 7.4), 0.015 M NaCl and 0.01% PEG-8000. The final concentration of enzyme used was 3 nM thrombin. The final concentration of substrate used was 125 μM S-2238 for thrombin. All assays were performed in 96-well microtiter plates at room temperature (RT). The enzyme and inhibitor were pre-incubated for 10 minutes then substrate was added and read at 405 nm in a SpectraMax Plus Spectrophotometer (Molecular Devices). Inhibitor IC50 values were determined by adding test compound as ten point, three-fold serial dilutions in buffer solution, as known in the art. The plate was read at 10 minutes after substrate addition. The IC50 was calculated by plotting the percent (%) inhibition against compound concentration and fitting the data to a constrained four parameter sigmoidal curve, as known in the art.
On to `O=C(c1ccccc1)n1nc(C2CCNCC2)nc1NCc1ccc(Cl)s1` [Entry 15, 1-benzoyl-N-[(5-chlorothiophen-2-yl)methyl]-3-(piperidin-4-yl)-1H-1,2,4-triazol-5-amine hydrochloride], for which the IC50 (usually the concentration that gives 50% inhibition) was no more than 0.1 µM.

As to `COc1ccccc1C(=O)n1nc(C2=C(O)CCCC2)nc1NCc1ccccc1` [Entry 16, 2-[5-(benzylamino)-1-(2-methoxybenzoyl)-1H-1,2,4-triazol-3-yl]cyclohex-1-en-1-ol], the IC50 was no less than 100 µM.

`OC1=C(c2n[nH]c(NCc3ccccc3)n2)CCCC1` [Entry 17, 2-[5-(benzylamino)-1H-1,2,4-triazol-3-yl]cyclohex-1-en-1-ol] showed an IC50 of no less than 100 µM.

Consider `COC1CCCCC1c1n[nH]c(N)n1` (stereo not shown) [Entry 18, 3-(2-methoxycyclohexyl)-1H-1,2,4-triazol-5-amine], for which the IC50 is no less than 100 µM.

On to `COc1ccccc1C(=O)n1nc(C2CN(S(=O)(=O)N(C)C)C2)nc1NCc1ccc(Cl)s1` [Entry 19, 3-(5-[(5-chlorothiophen-2-yl)methyl]amino-1-(2-methoxybenzoyl)-1H-1,2,4-triazol-3-yl)-N,N-dimethylazetidine-1-sulfonamide], for which the IC50 was no more than 0.1 µM.

Compound `O=C(c1ccccc1)n1nc(C2CNC2)nc1NCc1ccc(Cl)s1` [Entry 20, 3-(azetidin-3-yl)-1-benzoyl-N-[(5-chlorothiophen-2-yl)methyl]-1H-1,2,4-triazol-5-amine] yielded an IC50 of no less than 100 µM.

On to `O=C(c1cccc2c1OCCO2)n1nc(C2CNC2)nc1NCc1ccc(Cl)s1` [Entry 21, 3-(azetidin-3-yl)-N-[(5-chlorothiophen-2-yl)methyl]-1-(2,3-dihydro-1,4-benzodioxine-5-carbonyl)-1H-1,2,4-triazol-5-amine; trifluoroacetic acid], for which the concentration for half-maximal inhibition (IC50) is no more than 0.1 µM.

Regarding `O=C(C1CCCCC1)n1nc(C2CNC2)nc1NCc1ccc(Cl)s1` [Entry 22, 3-(azetidin-3-yl)-N-[(5-chlorothiophen-2-yl)methyl]-1-cyclohexanecarbonyl-1H-1,2,4-triazol-5-amine; trifluoroacetic acid], the IC50 fell in the range of 0.1 to 1 µM.

As to `O=C(C1CCCC1)n1nc(C2CNC2)nc1NCc1ccc(Cl)s1` [Entry 23, 3-(azetidin-3-yl)-N-[(5-chlorothiophen-2-yl)methyl]-1-cyclopentanecarbonyl-1H-1,2,4-triazol-5-amine], the IC50 was no less than 100 µM.

On to `Nc1nc(C2CCOCC2)n[nH]1` [Entry 24, 3-(oxan-4-yl)-1H-1,2,4-triazol-5-amine], for which the IC50 was no less than 100 µM.

`Nc1nc(C2CCCO2)n[nH]1` (stereo not shown) [Entry 25, 3-(oxolan-2-yl)-1H-1,2,4-triazol-5-amine]: the IC50 is no less than 100 µM.

Consider `Nc1nc(C2CCOC2)n[nH]1` (stereo not shown) [Entry 26, 3-(oxolan-3-yl)-1H-1,2,4-triazol-5-amine], for which the IC50 was no less than 100 µM.

With `COc1ccccc1C(=O)n1nc(C2CN(S(=O)(=O)c3ccccc3)C2)nc1NCc1ccc(Cl)s1` [Entry 27, 3-[1-(benzenesulfonyl)azetidin-3-yl]-N-[(5-chlorothiophen-2-yl)methyl]-1-(2-methoxybenzoyl)-1H-1,2,4-triazol-5-amine], the IC50 was no more than 0.1 µM.

Regarding `COc1ccccc1C(=O)n1nc(C2CCN(S(=O)(=O)c3ccccc3)CC2)nc1NCc1ccc(Cl)s1` [Entry 28, 3-[1-(benzenesulfonyl)piperidin-4-yl]-N-[(5-chlorothiophen-2-yl)methyl]-1-(2-methoxybenzoyl)-1H-1,2,4-triazol-5-amine], the IC50 is no more than 0.1 µM.

For the compound `Nc1nc(C2=C(OCc3ccc(Cl)s3)CCCC2)n[nH]1` [Entry 29, 3-2-[(5-chlorothiophen-2-yl)methoxy]cyclohex-1-en-1-yl-1H-1,2,4-triazol-5-amine], the IC50 is no less than 100 µM.

`COc1ccccc1C(=O)n1nc(C2CCN(C(=O)N(C)C)CC2)nc1NCc1ccc(Cl)s1` [Entry 30, 4-(5-[(5-chlorothiophen-2-yl)methyl]amino-1-(2-methoxybenzoyl)-1H-1,2,4-triazol-3-yl)-N,N-dimethylpiperidine-1-carboxamide] showed an IC50 of no more than 0.1 µM.
